From ChEMBL document CHEMBL5360652, “Drug Discovery Targeting Nuclear Receptor Binding SET Domain Protein 2 (NSD2)” (J Med Chem, 2023)
Each block holds one compound with its values, some of them ahead of it.

How the values were obtained:
[1] = target: T1, Histone-lysine N-methyltransferase, H3 lysine-36 specific (Homo sapiens, UniProt Q96L73); test: Inhibition of human recombinant NSD1 incubated for 2 hrs by AlphaLISA method
[2] = target: T2, Histone-lysine N-methyltransferase NSD2 (Homo sapiens, UniProt O96028); test: Binding affinity to NSD2 PWWP1 domain (unknown origin) assessed as dissociation constant
T2 sequence (O96028 whole entry): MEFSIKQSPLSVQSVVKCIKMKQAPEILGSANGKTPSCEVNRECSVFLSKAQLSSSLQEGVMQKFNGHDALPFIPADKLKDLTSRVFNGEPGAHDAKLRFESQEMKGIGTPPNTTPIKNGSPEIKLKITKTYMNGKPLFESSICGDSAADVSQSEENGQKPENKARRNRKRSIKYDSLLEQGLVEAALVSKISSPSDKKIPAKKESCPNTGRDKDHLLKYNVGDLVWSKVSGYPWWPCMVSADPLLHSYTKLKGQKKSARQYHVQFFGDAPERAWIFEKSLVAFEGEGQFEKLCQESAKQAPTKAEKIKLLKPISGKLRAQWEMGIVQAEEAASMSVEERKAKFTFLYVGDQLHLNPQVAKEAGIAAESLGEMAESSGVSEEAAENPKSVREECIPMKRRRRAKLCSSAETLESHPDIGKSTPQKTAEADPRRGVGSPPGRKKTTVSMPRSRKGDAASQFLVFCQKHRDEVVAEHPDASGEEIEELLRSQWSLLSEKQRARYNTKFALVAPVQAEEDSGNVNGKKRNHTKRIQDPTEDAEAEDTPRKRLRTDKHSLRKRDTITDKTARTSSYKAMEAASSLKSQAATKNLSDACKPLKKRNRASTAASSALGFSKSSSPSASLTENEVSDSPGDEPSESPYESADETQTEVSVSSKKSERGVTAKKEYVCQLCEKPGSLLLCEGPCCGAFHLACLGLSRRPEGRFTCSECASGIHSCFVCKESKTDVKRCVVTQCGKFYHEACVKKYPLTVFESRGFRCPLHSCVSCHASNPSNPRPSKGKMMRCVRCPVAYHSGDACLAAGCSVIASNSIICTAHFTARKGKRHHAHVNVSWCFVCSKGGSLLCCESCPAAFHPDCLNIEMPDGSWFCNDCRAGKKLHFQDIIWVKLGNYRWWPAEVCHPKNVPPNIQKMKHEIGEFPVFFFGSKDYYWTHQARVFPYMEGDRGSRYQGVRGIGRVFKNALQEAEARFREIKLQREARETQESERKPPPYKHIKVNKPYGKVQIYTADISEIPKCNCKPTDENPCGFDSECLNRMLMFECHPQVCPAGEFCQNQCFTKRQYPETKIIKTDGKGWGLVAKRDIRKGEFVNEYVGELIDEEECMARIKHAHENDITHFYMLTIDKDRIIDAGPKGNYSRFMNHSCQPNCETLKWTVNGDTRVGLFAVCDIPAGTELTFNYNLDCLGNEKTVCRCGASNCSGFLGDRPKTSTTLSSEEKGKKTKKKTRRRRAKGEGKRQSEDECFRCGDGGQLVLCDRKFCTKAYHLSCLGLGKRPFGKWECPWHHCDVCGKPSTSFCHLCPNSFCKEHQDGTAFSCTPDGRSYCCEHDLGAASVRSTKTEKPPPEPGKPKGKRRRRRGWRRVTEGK

[3] = system: Respiratory syncytial virus; test: Antiviral activity against RSV assessed as viral growth inhibition; type: functional, organism-based; conditions: human respiratory syncytial virus
[4] = target: T3, Histone-lysine N-methyltransferase NSD3 (Homo sapiens, UniProt Q9BZ95); test: Antagonist activity against recombinant human GST-tagged NSD3 PWWP1 domain (247 to 398 residues) expressed in Escherichia coli BL21(DE3) incubated for 60 mins by TR-FRET assay
T3 sequence (Q9BZ95 whole entry): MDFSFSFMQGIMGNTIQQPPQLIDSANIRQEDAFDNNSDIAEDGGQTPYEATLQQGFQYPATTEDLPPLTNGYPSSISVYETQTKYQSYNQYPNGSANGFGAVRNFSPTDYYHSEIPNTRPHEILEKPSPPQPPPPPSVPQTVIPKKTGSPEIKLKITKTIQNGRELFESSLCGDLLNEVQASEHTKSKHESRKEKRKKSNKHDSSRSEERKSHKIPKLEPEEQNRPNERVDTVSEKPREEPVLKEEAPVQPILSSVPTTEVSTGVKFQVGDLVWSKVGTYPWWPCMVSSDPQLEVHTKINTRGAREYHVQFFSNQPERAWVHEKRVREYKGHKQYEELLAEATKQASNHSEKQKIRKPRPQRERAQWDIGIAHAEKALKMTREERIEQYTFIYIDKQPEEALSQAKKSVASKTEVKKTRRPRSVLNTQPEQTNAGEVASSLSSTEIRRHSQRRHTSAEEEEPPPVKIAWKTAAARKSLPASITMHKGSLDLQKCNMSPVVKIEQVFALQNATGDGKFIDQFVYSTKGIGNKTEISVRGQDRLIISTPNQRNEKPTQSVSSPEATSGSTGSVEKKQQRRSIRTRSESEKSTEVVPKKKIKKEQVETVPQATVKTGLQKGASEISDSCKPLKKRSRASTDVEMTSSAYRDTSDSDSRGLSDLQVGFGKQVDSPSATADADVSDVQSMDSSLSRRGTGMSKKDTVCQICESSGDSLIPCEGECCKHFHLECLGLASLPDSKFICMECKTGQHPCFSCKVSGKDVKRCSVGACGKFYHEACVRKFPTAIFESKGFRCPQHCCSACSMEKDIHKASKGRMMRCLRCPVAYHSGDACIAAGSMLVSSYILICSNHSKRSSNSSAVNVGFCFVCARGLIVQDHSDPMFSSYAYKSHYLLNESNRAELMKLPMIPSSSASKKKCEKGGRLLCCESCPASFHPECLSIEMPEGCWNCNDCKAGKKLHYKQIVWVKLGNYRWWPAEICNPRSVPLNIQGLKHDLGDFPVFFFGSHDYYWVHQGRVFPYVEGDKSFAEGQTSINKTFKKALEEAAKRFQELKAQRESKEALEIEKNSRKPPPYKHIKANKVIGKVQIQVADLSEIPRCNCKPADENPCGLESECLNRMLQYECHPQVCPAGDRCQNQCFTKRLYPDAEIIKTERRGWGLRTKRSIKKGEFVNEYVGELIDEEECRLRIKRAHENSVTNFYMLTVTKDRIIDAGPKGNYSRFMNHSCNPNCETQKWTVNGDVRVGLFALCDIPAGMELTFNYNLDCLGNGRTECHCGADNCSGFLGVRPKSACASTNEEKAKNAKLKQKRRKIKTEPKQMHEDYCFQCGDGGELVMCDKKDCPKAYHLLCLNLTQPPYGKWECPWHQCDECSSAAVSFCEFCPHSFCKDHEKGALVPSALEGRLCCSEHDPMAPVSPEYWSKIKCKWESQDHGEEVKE

[5] = target: T3, Histone-lysine N-methyltransferase NSD3; test: Binding affinity to human recombinant NSD3 PWWP1 domain assessed as dissociation constant
[6] = target: von Hippel-Lindau disease tumor suppressor/Histone-lysine N-methyltransferase NSD3 (Homo sapiens) (UniProt Q9BZ95+P40337); test: Protac activity at VHL/NSD3 in human MOLM-13 cells assessed as induction of NSD3 degradation incubated for 48 hrs by immunoblotting analysis relative to control; type: cell-based
Chain of von Hippel-Lindau disease tumor suppressor/Histone-lysine N-methyltransferase NSD3 (Homo sapiens) (P40337 whole entry, looked up, one chain of several): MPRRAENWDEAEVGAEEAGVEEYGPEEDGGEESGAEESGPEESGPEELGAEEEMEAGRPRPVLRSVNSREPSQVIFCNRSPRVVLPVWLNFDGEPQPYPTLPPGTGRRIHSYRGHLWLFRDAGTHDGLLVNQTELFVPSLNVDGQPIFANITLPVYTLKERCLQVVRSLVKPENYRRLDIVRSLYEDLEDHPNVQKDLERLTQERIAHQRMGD

[7] = target: von Hippel-Lindau disease tumor suppressor/Histone-lysine N-methyltransferase NSD3 (Homo sapiens, UniProt P40337+Q9BZ95); test: Protac activity at VHL/NSD3 in human MOLM-13 cells assessed as induction of NSD3 degradation incubated for 6 hrs by immunoblotting analysis; type: cell-based
Chain of von Hippel-Lindau disease tumor suppressor/Histone-lysine N-methyltransferase NSD3 (P40337 whole entry, one chain of several): as the sequence (P40337 whole entry, looked up, one chain of several) above

[8] = target: T4, Histone-lysine N-methyltransferase NSD2 (Homo sapiens) (UniProt O96028); test: Inhibition of NSD2 (unknown origin) at 50 uM relative to control
T4 sequence (whole entry): T2 sequence (O96028 whole entry)

[9] = target: T1, Histone-lysine N-methyltransferase, H3 lysine-36 specific; test: Inhibition of NSD1 SET domain (1852 to 2105 residues) (unknown origin) expressed in Escherichia coli BL21 (DE3)
[10] = system: U2OS; test: Cytotoxicity against human U2OS cells assessed as cell growth inhibition; type: functional
[11] = target: Histone-lysine N-methyltransferase NSD2 (Homo sapiens, UniProt O96028, T1150A); test: Inhibition of NSD2 T1150A mutant (unknown origin)
Chain of Histone-lysine N-methyltransferase NSD2 (Homo sapiens, UniProt O96028, T1150A) (O96028 whole entry T1150A): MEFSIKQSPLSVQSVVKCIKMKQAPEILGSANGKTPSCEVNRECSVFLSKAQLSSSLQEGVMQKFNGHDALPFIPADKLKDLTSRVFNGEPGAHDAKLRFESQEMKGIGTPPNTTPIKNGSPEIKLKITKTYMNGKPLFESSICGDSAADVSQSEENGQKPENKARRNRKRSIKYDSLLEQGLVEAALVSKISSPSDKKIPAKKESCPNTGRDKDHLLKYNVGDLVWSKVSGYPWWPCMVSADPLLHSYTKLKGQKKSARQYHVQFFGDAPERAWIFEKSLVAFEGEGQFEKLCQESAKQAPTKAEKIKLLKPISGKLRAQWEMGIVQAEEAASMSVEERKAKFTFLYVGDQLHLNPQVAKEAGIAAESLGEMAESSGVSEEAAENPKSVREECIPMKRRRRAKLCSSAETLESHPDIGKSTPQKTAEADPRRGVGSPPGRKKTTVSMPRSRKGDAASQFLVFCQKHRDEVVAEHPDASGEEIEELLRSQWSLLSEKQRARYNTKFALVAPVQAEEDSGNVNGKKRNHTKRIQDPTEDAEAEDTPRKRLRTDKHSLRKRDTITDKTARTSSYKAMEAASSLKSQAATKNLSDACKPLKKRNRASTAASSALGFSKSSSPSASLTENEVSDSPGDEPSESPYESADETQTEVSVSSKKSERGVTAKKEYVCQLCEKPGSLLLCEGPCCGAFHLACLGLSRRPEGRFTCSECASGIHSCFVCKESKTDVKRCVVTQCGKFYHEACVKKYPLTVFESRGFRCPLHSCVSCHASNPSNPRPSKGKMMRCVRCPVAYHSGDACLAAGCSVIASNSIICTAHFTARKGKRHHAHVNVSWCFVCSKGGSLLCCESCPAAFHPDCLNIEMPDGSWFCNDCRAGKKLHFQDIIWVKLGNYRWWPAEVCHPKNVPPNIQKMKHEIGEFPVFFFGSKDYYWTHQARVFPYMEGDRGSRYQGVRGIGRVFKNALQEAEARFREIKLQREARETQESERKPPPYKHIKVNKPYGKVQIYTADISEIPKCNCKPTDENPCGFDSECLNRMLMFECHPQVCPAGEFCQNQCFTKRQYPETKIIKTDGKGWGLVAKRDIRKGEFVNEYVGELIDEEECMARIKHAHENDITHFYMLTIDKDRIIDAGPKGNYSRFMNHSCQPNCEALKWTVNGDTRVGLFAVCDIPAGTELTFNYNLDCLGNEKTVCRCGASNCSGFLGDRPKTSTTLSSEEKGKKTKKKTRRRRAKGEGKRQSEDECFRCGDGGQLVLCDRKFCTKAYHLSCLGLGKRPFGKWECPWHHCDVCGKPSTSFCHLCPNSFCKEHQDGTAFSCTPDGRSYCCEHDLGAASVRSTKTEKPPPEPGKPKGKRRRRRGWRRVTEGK

[12] = target: Histone-lysine N-methyltransferase NSD2 (Homo sapiens, UniProt O96028, E1099K); test: Inhibition of NSD2 E1099K mutant (unknown origin)
Chain of Histone-lysine N-methyltransferase NSD2 (Homo sapiens, UniProt O96028, E1099K) (O96028 whole entry E1099K): as the sequence (O96028 whole entry T1150A) above, with E1099K, A1150T counted along it

[13] = target: T4, Histone-lysine N-methyltransferase NSD2 (Homo sapiens); test: Induction of degradation of NSD2 in human U2OS cells assessed as maximum degradation relative to control; type: cell-based
[14] = target: T2, Histone-lysine N-methyltransferase NSD2; test: Induction of degradation of NSD2 in human U2OS cells; type: cell-based
[15] = Inhibition of N-terminal hexa-histidine tagged NSD3 SET domain (1066 to 1288 residues) (unknown origin) expressed in Escherichia coli incubated for 4 hrs by ITC method; parameters: species or system Homo sapiens
[16] = target: T1, Histone-lysine N-methyltransferase, H3 lysine-36 specific; test: Binding affinity to NSD1 (unknown origin) assessed as dissociation constant by ITC assay

T1 sequence (Q96L73 whole entry, the tested form may be a part): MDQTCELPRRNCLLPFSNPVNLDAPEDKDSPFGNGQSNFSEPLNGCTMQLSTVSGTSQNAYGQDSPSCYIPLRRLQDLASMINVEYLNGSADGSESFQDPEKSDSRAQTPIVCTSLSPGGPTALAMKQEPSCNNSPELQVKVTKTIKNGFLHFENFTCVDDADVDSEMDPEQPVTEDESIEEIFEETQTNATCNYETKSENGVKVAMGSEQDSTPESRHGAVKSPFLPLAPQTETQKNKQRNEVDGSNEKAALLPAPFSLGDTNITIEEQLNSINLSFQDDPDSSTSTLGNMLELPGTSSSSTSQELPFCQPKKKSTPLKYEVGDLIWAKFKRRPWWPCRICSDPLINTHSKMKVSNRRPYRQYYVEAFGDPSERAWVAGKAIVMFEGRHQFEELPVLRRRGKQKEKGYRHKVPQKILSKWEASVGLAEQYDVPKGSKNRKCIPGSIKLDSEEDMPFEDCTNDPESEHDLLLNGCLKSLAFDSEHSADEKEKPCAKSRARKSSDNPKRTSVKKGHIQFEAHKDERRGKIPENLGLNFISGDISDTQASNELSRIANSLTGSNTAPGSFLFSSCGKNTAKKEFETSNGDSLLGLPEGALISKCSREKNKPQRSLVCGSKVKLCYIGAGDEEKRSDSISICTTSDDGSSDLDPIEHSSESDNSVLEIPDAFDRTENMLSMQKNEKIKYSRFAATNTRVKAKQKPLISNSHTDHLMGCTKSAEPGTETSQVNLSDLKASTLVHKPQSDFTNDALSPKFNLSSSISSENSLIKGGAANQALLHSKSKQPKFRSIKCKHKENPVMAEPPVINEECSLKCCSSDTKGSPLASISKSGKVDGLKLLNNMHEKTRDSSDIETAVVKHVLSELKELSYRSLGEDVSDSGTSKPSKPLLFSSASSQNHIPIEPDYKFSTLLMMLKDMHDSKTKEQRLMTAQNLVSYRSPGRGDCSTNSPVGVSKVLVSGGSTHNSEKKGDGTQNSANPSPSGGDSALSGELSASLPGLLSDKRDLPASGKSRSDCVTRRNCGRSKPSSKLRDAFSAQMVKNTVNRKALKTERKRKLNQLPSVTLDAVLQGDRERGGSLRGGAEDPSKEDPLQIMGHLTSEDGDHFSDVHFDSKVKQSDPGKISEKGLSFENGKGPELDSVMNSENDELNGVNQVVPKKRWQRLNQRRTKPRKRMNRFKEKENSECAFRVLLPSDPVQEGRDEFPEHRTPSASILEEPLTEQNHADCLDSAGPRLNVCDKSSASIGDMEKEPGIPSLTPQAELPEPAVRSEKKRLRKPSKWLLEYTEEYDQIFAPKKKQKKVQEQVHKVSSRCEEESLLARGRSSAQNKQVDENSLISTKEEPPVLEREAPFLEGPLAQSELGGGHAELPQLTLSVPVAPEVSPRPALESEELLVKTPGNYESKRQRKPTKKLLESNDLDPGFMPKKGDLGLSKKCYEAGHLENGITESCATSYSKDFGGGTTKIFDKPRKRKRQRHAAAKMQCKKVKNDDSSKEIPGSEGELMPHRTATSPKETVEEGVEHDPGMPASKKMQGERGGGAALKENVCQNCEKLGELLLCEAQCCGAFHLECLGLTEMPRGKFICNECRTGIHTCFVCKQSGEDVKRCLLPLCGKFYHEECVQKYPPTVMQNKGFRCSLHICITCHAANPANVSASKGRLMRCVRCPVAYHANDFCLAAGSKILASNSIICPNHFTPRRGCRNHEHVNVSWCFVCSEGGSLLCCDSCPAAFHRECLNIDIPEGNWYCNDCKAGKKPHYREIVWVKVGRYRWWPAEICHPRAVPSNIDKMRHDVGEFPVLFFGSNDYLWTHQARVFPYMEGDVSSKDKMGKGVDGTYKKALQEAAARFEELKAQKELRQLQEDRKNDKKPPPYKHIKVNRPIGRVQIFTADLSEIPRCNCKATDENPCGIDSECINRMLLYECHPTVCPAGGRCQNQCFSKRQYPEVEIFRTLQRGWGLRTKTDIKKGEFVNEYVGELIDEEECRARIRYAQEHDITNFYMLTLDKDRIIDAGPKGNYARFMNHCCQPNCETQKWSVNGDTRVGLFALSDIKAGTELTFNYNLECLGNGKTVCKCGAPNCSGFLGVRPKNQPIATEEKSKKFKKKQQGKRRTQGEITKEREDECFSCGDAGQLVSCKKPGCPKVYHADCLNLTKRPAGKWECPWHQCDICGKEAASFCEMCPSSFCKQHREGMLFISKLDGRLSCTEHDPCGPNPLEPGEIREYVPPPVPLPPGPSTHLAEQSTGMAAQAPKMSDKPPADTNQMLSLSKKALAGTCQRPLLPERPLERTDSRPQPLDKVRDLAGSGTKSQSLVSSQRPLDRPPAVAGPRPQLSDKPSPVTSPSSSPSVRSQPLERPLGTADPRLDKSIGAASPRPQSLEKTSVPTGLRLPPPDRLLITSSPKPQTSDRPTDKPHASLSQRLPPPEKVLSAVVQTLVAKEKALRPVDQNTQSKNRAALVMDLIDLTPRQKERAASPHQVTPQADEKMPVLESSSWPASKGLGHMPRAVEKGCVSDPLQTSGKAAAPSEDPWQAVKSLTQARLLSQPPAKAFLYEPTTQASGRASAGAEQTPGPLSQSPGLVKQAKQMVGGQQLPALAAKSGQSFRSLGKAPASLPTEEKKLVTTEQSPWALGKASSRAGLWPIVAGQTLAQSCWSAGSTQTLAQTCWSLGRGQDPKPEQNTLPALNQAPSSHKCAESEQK

IC50 [1]: 0.16 µM
SMILES: COC[C@@]1(N)CCCN(c2cnc(-c3ccc(F)c(F)c3)cc2Cn2cnc3c(N)ncnc32)C1

Kd [2]: 3.4 µM
SMILES: O=C1COc2cc(C(=O)N(Cc3cccs3)C3CC3)ccc2N1

IC50 [4]: 0.11 µM
SMILES: Cc1cc(CN2CCC(N)CC2)cc(C)c1-c1ncn(C)c1-c1ccc(C#N)c2ccccc12
IC50 [3]: 6.3 µM

Kd [5]: 0.046 µM
Kd [2]: 0.046 µM
SMILES: O=C(CCCC[C@@H]1SC[C@@H]2NC(=O)N[C@@H]21)NCCOCCOCCOCCOCCOCCOCCOCCOCCOCCOCCOCCNC(=O)c1ccc(NC(=O)c2ccc(CN(C(=O)c3ccc4c(c3)OCC(=O)N4)C3CC3)cc2)cc1

Kd [5]: 1.3 µM
Emax [6]: 80%
EC50 [7]: 4.9 µM
SMILES: Cc1cc(CNCCCC(=O)NCCCCCCCCC(=O)N[C@H](C(=O)N2C[C@H](O)C[C@H]2C(=O)N[C@@H](C)c2ccc(-c3scnc3C)cc2)C(C)(C)C)cc(C)c1-c1ncn(C)c1-c1ccnc2cc(F)ccc12

inhibition [8]: 92%
SMILES: C=CC(=O)Nc1cc(NC(=O)Nc2ccc3nnsc3c2)cc(C(=O)OC)c1

IC50 [1]: 0.214 µM
SMILES: Nc1ncnc2c1ncn2Cc1cc(-c2ccc(F)c(F)c2)ncc1N1CCC[C@](N)(COC2CC2)C1

IC50 [9]: > 1000 µM
SMILES: O=C1O[C@@H](C(=O)N2CCN(Cc3nc4sc5c(c4c(=O)[nH]3)CCCC5)CC2)Cc2ccccc21

IC50 [11]: 0.17 µM
IC50 [12]: 0.11 µM
SMILES: O=C1C(Cl)=C(NCCN2CCOCC2)C(=O)c2ncccc21
CC50 [10]: 0.27 µM

Emax [13]: 79%
EC50 [14]: 0.35 µM
SMILES: NCCCCCCNC(=O)c1ccc(NC(=O)c2ccc(CN(C(=O)c3ccc4c(c3)OCC(=O)N4)C3CC3)cc2)cc1

SMILES: CC1CN1c1cc(O)c2nc(N)sc2c1 (centres undefined)
IC50 [15]: 14.3 µM

Kd [16]: 1.2 µM
SMILES: O=C1c2c(O)ccc(O)c2C(=O)C2C(NCCNCCO)=CC=C(NCCNCCO)C12 (centres undefined)
